The supplement of paper PMC10307832

How the values were obtained:
Experiment in all cases: relative viability (nuclei count vs DMSO), 5 days (fraction); higher = more cells survive
[1] = compound: c1ccc2c(CCNc3ccc(Nc4ccncc4)cc3)c[nH]c2c1 [Serdemetan] + NC(=O)Nc1cc(-c2cccc(F)c2)sc1C(=O)N[C@H]1CCCNC1 [AZD7762] (partner 0.2 µM)
Outline: (§1)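 The day after seeding in 1536-well plates, lung cancer cell lines were treated by pin tool with a single drug, or with a fixed anchor-drug dose together with five library-drug doses (not always all listed) in √10 steps. After 5 days, a combined fix-and-stain solution (final 0.05% Triton X-100, 1% formaldehyde, 1 ug/ml Hoechst) was added. Nuclei counted on 4× images gave relative viability as treated counts over vehicle counts, reported as the median of duplicate plates.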

[2] = compound: c1ccc2c(CCNc3ccc(Nc4ccncc4)cc3)c[nH]c2c1 [Serdemetan] + CS(=O)(=O)CCNCc1ccc(-c2ccc3ncnc(Nc4ccc(OCc5cccc(F)c5)c(Cl)c4)c3c2)o1 [Lapatinib] (partner 2 µM)
Outline: as §1

[3] = compound: C1CC(C2=C(C1)C3=C(N2)C=CC(=C3)Cl)C(=O)N [Selisistat] + COc1cccc2cc(-c3nc([C@H]4CC[C@H](C(=O)O)CC4)n4ncnc(N)c34)[nH]c12 [OSI-027] (partner 0.5 µM)
Outline: as §1

[4] = compound: c1ccc2c(CCNc3ccc(Nc4ccncc4)cc3)c[nH]c2c1 [Serdemetan] + CCNC(=O)c1noc(-c2cc(C(C)C)c(O)cc2O)c1-c1ccc(CN2CCOCC2)cc1 [Luminespib] (partner 0.01 µM)
Outline: as §1

| Cell Line | relative viability ([1]; first compound 0.04 µM) | relative viability ([1]; first compound 0.1265 µM) | relative viability ([1]; first compound 0.4 µM) | relative viability ([1]; first compound 1.265 µM) | relative viability ([1]; first compound 4 µM) | relative viability ([2]; first compound 0.04 µM) | relative viability ([2]; first compound 0.1265 µM) | relative viability ([2]; first compound 0.4 µM) | relative viability ([2]; first compound 1.265 µM) | relative viability ([2]; first compound 4 µM) | relative viability ([3]; first compound 0.4 µM) | relative viability ([3]; first compound 1.265 µM) | relative viability ([3]; first compound 4 µM) | relative viability ([3]; first compound 12.65 µM) | relative viability ([3]; first compound 40 µM) | relative viability ([4]; first compound 0.04 µM) | relative viability ([4]; first compound 0.1265 µM) | relative viability ([4]; first compound 0.4 µM) | relative viability ([4]; first compound 1.265 µM) | relative viability ([4]; first compound 4 µM) |
| --- | --- | --- | --- | --- | --- | --- | --- | --- | --- | --- | --- | --- | --- | --- | --- | --- | --- | --- | --- | --- |
| NCI-H1395 | 0.42 | 0.398 | 0.415 | 0.369 | 0.384 | 1.04 | 1.07 | 1.34 | 0.932 | 0.717 | 0.691 | 0.675 | 0.53 | 0.502 | 0.622 | 0.651 | 0.671 | 0.673 | 0.6 | 0.459 |
| NCI-H1437 | 1.13 | 1.12 | 1.1 | 0.979 | 0.876 | 0.846 | 0.752 | 0.679 | 0.76 | 0.634 | 0.908 | 0.915 | 0.631 | 0.891 | 0.783 | 1.11 | 1 | 1.06 | 1.02 | 0.788 |
| NCI-H1651 | 0.375 | 0.286 | 0.363 | 0.248 | 0.213 | 0.575 | 0.65 | 0.49 | 0.271 | 0.275 | 0.605 | 0.744 | 0.705 | 0.674 | 0.764 | 0.714 | 0.591 | 0.457 | 0.473 | 0.273 |
| NCI-H1666 | 0.812 | 0.721 | 0.731 | 0.691 | 0.634 | 0.853 | 0.656 | 0.613 | 0.573 | 0.498 | 0.794 | 0.744 | 0.841 | 0.673 | 0.711 | 1.01 | 0.992 | 1.05 | 0.869 | 0.811 |
| NCI-H1734 | 0.375 | 0.268 | 0.266 | 0.104 | 0.144 | 0.855 | – | 0.833 | 0.0959 | 0.195 | 0.616 | 0.636 | 0.491 | 0.545 | 0.685 | 0.198 | 0.24 | 0.196 | 0.15 | 0.186 |
| NCI-H1755 | 0.461 | 0.45 | 0.492 | 0.288 | 0.389 | 0.984 | 1.01 | 0.989 | 0.548 | 0.714 | 0.745 | 0.736 | 0.739 | 0.686 | 0.746 | 0.417 | 0.43 | 0.568 | 0.39 | 0.343 |
| NCI-H1792 | 0.674 | 0.59 | 0.63 | 0.326 | 0.324 | 0.854 | 0.863 | 0.86 | 0.646 | 0.676 | 0.745 | 0.68 | – | 0.644 | 0.689 | 0.471 | 0.407 | 0.422 | 0.415 | 0.298 |
| NCI-H1793 | 0.367 | 0.313 | 0.335 | 0.181 | 0.192 | 0.644 | 0.679 | 0.637 | 0.38 | 0.625 | 0.28 | 0.245 | – | 0.299 | 0.345 | 0.17 | 0.186 | 0.343 | 0.169 | 0.165 |
| NCI-H1915 | 0.685 | 0.656 | 0.763 | 0.536 | 0.503 | 0.967 | 0.995 | 1.03 | 0.955 | 0.965 | 0.678 | 0.646 | 0.425 | 0.605 | 0.646 | 0.74 | 0.73 | 0.672 | 0.514 | 0.532 |
| NCI-H1944 | 0.43 | 0.647 | 0.626 | 0.291 | 0.281 | 0.788 | 0.7 | 0.768 | – | 0.494 | 0.485 | 0.394 | – | 0.433 | 0.441 | 0.664 | 0.679 | 0.691 | 0.249 | 0.306 |
| NCI-H1975 | 0.635 | 0.769 | 0.717 | 0.769 | 0.72 | 0.837 | 0.855 | 0.882 | 0.837 | 1.13 | 0.678 | 0.718 | 0.62 | 0.659 | 0.626 | 0.371 | 0.393 | 0.176 | 0.18 | 0.17 |
| NCI-H1993 | 0.789 | 0.897 | 0.588 | 0.778 | 0.726 | 0.873 | 0.861 | 0.75 | – | 0.768 | 0.506 | 0.584 | 0.618 | 0.554 | 0.542 | 0.981 | 0.778 | 0.811 | 0.768 | 0.758 |
| NCI-H2085 | 0.995 | 0.916 | 0.974 | 0.801 | 0.792 | 0.814 | 0.779 | 0.74 | 0.649 | 0.501 | 0.822 | 0.733 | 0.397 | 0.79 | 0.921 | 0.454 | 0.394 | 0.457 | 0.382 | 0.354 |
| NCI-H2087 | 1.23 | 0.828 | 0.778 | 0.494 | 0.535 | 1.06 | 0.974 | 1.1 | 0.641 | 0.508 | 0.646 | 0.645 | – | 0.516 | 0.652 | 0.176 | 0.147 | 0.168 | 0.184 | 0.123 |
| NCI-H2126 | 0.924 | 1.04 | 0.923 | 0.932 | 1.04 | 0.736 | 0.724 | 0.78 | 0.645 | 0.844 | 0.781 | 0.639 | 0.609 | 0.62 | 0.768 | 0.983 | 0.964 | 0.9 | 0.88 | 1.01 |
| NCI-H2170 | 0.891 | 0.964 | 0.873 | 0.746 | 0.758 | 0.322 | 0.298 | 0.285 | 0.268 | 0.273 | 0.839 | 0.692 | 0.63 | 0.766 | 0.739 | 0.643 | 0.596 | 0.807 | 0.459 | 0.56 |
| NCI-H2347 | 0.673 | 0.686 | 0.668 | 0.462 | 0.406 | 0.8 | 0.938 | 0.781 | 0.812 | 0.872 | 0.61 | 0.403 | 0.246 | 0.482 | 0.46 | 1.08 | 0.56 | 0.215 | 0.264 | 0.292 |
| NCI-H2405 | 0.747 | 0.721 | 0.721 | 0.683 | 0.625 | 1 | 1.06 | 1.17 | 1.07 | 0.963 | 0.674 | 0.579 | 0.598 | 0.674 | 0.666 | 0.716 | 0.664 | 0.64 | 0.573 | 0.596 |
| NCI-H3122 | 1 | 0.975 | 1.03 | 0.929 | 0.71 | 1 | 0.98 | 1 | – | 1.03 | 0.9 | 0.933 | 0.444 | 0.892 | 1.01 | 0.0976 | 0.0835 | 0.115 | – | 0.101 |
| PC-3 [JPC-3] | 0.823 | 0.759 | 0.802 | 0.591 | 0.71 | 0.439 | 0.471 | – | 0.447 | 0.465 | 0.931 | 0.776 | 0.739 | 0.662 | 0.731 | 0.651 | 0.612 | 0.621 | 0.654 | 0.494 |
| PC-14 | 0.327 | 0.357 | 0.204 | 0.304 | 0.161 | 0.335 | 0.3 | 0.295 | 0.259 | 0.251 | 0.973 | 0.783 | 0.755 | 0.819 | 0.931 | 0.129 | 0.163 | – | 0.149 | 0.107 |
| RERF-LC-KJ | 1.03 | 0.547 | 0.806 | 0.897 | 0.94 | 0.757 | 0.811 | 0.826 | 0.8 | 0.754 | 0.742 | 0.525 | 0.51 | 0.532 | 0.533 | 1.43 | 1.16 | 1.17 | 1.1 | 1.12 |
